Values quoted from earlier work, collected in patent publication US20090092657A1, “Amino acid combinant omega oil aphrodisiac” (priority 2007, published 2009).

Tests used:
[1] = for erection after injection: injected directly into the corpus cavernosum using a hypodermic needle; for duration of erection: intracavernosal injection, appropriate dose
[2] = 1989 outbreak traced to L-tryptophan supplied by Showa Denko KK
[3] = buccal administration of 100 I.U. three times a day for 14 days

SMILES	erection after injection [1]	also measured
CN(C)CCCN1c2ccccc2CCc2ccccc21 [imipramine]	caused erection	–
N[C@@H](Cc1c[nH]c2ccccc12)C(=O)O [L-tryptophan]	–	cases of eosinophilia-myalgia syndrome (EMS) in the outbreak [2]: 1500 cases; deaths in the EMS outbreak [2]: at least 37 deaths
CC(=O)Oc1cc(C(C)C)c(OCCN(C)C)cc1C [thymoxamine]	caused erection	–
COc1ccc(Cc2nccc3cc(OC)c(OC)cc23)cc1OC [papaverine]	caused erection	duration of erection [1]: unrelenting erection lasting for hours
Cc1ccc(N(CC2=NCCN2)c2cccc(O)c2)cc1 [phentolamine]	caused erection	–
CC(COc1ccccc1)N(CCCl)Cc1ccccc1 (centres unmarked) [phenoxybenzamine]	caused erection	duration of erection [1]: unrelenting erection lasting for hours
CCN(CC)CCOC(=O)C(Cc1cccc2ccccc12)CC1CCCO1 (mixture of isomers) [naftidrofuryl]	caused erection	–
CC[C@H](C)[C@@H]1NC(=O)[C@H](Cc2ccc(O)cc2)NC(=O)[C@@H](N)CSSC[C@@H](C(=O)N2CCC[C@H]2C(=O)N[C@@H](CC(C)C)C(=O)NCC(N)=O)NC(=O)[C@H](CC(N)=O)NC(=O)[C@H](CCC(N)=O)NC1=O [oxytocin]	–	improvement of impotentia erectionis, patients improved of patients treated [3]: 12 of the 16
